These results are taken from patent US20160266093A1, “CELLS HAVING DISRUPTED EXPRESSION OF PROTEINS INVOLVED IN ADME AND TOXICOLOGY PROCESSES” (SIGMA-ALDRICH CO. LLC, priority 2010, published 2016).

Series [1] relates to MDR1 knockout C2BBe1 cells. As for the experimental part:
(§1) Both wild type cells (parental C2BBe1 cells) and BCRP knockout cells were seeded onto 24-well transwell plates and cultured for 21 days, following a standard protocol for intestinal efflux transporter assays previously developed using Caco-2 cells. The permeability of test compounds in both the apical to basal (A to B) and basal to apical (B to A) directions was measured following a two hour incubation and the efflux values calculated. […] Digoxin is a known MDR1 substrate, while CDCFDA is selective for the MRP2 transporter. Two additional compounds were used as controls, atenolol and metoprolol, which are known to not be substrates for either of these transporters.
(§2) The BCRP and MDR1 transporter genes were individually knocked out and an MDR1/BCRP double knockout was also generated in C2BBe1 cells using zinc finger nuclease technology. Cells were analyzed and expanded as described above and then tested for functional activity in the standard transwell assay. Two substrates were utilized—estrone 3-sulfate as a selective substrate for BCRP and digoxin as a selective substrate for MDR1. Metoprolol was used as a control.

Series [2] concerns MDR1/BCRP double knockout C2BBe1 cells. As to the method:
as §1, §2

Series [3] concerns parental C2BBe1 cells (wild type). The conditions noted are these: Caco-2. As for the experimental part: as §1, §2
Series [4] has as its system BCRP knockout C2BBe1 cells. As for the experimental part:
The wild-type BCRP gene was knocked out in C2BBe1 cells using zinc finger nuclease technology to generate a stable cell line. Cells were sorted and single cell cloned. Cells were analyzed for the desired mutations and positive clones were chosen for further expansion and analysis. Quantitative PCR was used to evaluate mRNA expression of the cell and compared to wild type cell. Whole cell lysates prepared from these clones were subjected to immunoblotting for analysis of BCRP protein expression level. […] A single BCRP knockout cell clone was selected for functional characterization of efflux activity using several known transporter-selective substrates (e.g. estrone 3-sulfate, digoxin and CDCFDA).
as §1, §2

Turning to `C[C@H]1O[C@@H](O[C@H]2[C@@H](O)C[C@H](O[C@H]3[C@@H](O)C[C@H](O[C@H]4CC[C@@]5(C)[C@H](CC[C@@H]6[C@@H]5C[C@@H](O)[C@]5(C)[C@@H](C7=CC(=O)OC7)CC[C@]65O)C4)O[C@@H]3C)O[C@@H]2C)C[C@H](O)[C@@H]1O` [digoxin], the efflux ratio result was “inhibited” in series [1], “inhibited” in series [2], “high” in series [3] and “high” in series [4]. Also, the “efflux ratio in the knockout cells compared to the parental cells” value in series [4] was “unaffected”.
On to `C[C@]12CC[C@@H]3c4ccc(OS(=O)(=O)O)cc4CC[C@H]3[C@@H]1CCC2=O` [estrone 3-sulfate], for which the efflux ratio entry is “high” in series [1], “inhibited” in series [2], “high” in series [3] and “inhibited” in series [4]. The “efflux ratio in the knockout cells compared to the parental cells” value in series [4] was “greatly reduced”.
